Earlier results, collected in US6458790B2, “Substituted piperidines as melanocortin receptor agonists” (Merck & Co., Inc., priority 2000, dated 2002).

Legend:
[1] = system: men with erectile dysfunction; details: for duration of effect / onset of action: after an oral dose; for share of men/patients in whom effective (adequate response): oral
[2] = system: males with psychogenic erectile dysfunction
[3] = subcutaneous injection formulation

In the case of `CCCc1nn(C)c2c(=O)[nH]c(-c3cc(S(=O)(=O)N4CCN(C)CC4)ccc3OCC)nc12` [Sildenafil], the duration of effect [1] is listed as “about 4 hours”, the onset of action [1] is listed as 30 to 60 min and the “share of men/patients in whom effective (adequate response)” value [1] is listed as “about 70%”.
For `Cc1ccc(N(CC2=NCCN2)c2cccc(O)c2)cc1` [phentolamine], the duration of effect [1] is listed as 2 h, the onset of action [1] is listed as 5 to 30 min and the “share of men/patients in whom effective (adequate response)” value [1] is listed as 35-40%.
In the case of “Ac-Nle-c[Asp-His-DPhe-Arg-Trp-Lys]-NH2 [MT-II]”, the “absorption into the systemic circulation” value ([2]; human, in vivo, po) is listed as “not absorbed into the systemic circulation”, the response rate ([2]; injected intramuscularly or subcutaneously) is listed as 75% and the duration of action [2, 3] is listed as “approximately 2.5 hours”. The “time to onset of erection” value [2, 3] was 10 to 20 min.
